For 32 compounds, EC50 results are on record in US20260315483A1, “HETEROCYCLIC COMPOUNDS AS TRIGGERING RECEPTOR EXPRESSED ON MYELOID CELLS 2 AGONISTS AND METHODS OF USE” (VIGIL NEUROSCIENCE, INC., priority 2023, published 2026).

The assay has as its target T1, human TREM2 (Homo sapiens, UniProt Q9NZC2).
T1 construct: expressed in transfected cells; host or cells: HEK293T-hTREM2 cells (HEK cell line expressing human TREM2 and DAP12)
Description: In vitro measurement of TREM2 activity using cellular phosphorylation of spleen tyrosine kinase (Syk), AlphaLisa, HEK293T-hTREM2 cells. As to conditions: HEK293T cells expressing human TREM2 and DAP12, 45 min at room temperature. Type of assay: cell-based. The protocol: In Vitro Measurement of Triggering Receptor Expressed on Myeloid Cells 2 Activity Using Cellular Phosphorylation of Spleen Tyrosine Kinase (“Syk”) Assays
Measurement of TREM2 agonist potency was done using a HEK cell line expressing human TREM2 and DAP12 (HEK293T-hTREM2 cells). Binding of small molecules to, and activation of, TREM2 increases the phosphorylation of Syk. The resultant levels of Syk phosphorylation are measured using a commercial AlphaLisa reagent kit. To perform the assay, HEK-hTREM2 cells were plated at 14,000 cells per well in a 384 well plate, in 25 μL of complete growth media and incubated at 37° C., 5% CO2 for 20-24 hours.
Prior to the assay, test compounds were diluted in the 384 well plates in assay buffer and allowed to equilibrate for 30 minutes. Growth media was removed from cell plates by inversion on blotting paper, and 25 μL of test articles in assay buffer was added to cells. Cells were incubated for 45 minutes at room temperature. After 45 minutes, assay buffer was removed and 10 μL of lysis buffer was added. Plates were shaken for 20 minutes at 350 RPM at room temperature. After complete lysis, AlphaLisa reagents were added to the lysate, and fluourescence intensity was measured using a Perkin Elmer Envision plate reader. Intensities were used to generate a standard curve, and % activation was calculated. Curve fitting was performed using Prism v9 software, log(agonist) vs response—variable slope (four parameters), and EC50s were calculated from the curve fit.
The results presented in Tables D and D-2 have been generated with the in vitro assay described above. This assay may be used to test any of the compounds described herein to assess and characterize a compound's ability to act as an agonist of TREM2.

T1 sequence (Q9NZC2 19-230): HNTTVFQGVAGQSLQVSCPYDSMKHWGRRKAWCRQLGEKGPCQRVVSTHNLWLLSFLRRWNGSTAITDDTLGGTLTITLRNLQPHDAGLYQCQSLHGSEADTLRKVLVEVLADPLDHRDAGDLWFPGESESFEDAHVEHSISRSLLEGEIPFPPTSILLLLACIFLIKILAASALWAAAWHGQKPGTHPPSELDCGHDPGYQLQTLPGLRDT
T1 sequence (O43914 22-113 partner): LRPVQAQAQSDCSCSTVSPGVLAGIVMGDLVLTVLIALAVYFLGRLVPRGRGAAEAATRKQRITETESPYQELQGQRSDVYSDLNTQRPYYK

Take `Cc1c(F)ccc(-c2cc(N3C[C@@H](C)O[C@@H](c4cnn(C5CC5)c4)C3)nc3ncnn23)c1F` [compound 132, (2S,6R)-2-(1-cyclopropyl-1H-pyrazol-4-yl)-4-(7-(2,4-difluoro-3-methylphenyl)-[1,2,4]triazolo[1,5-a]pyrimidin-5-yl)-6-methylmorpholine]: under “Table D”, the EC50 fell in the range of 500 to 3000 nM.

On to `CN1C(=O)c2cc([C@@H]3CCO[C@H](c4cnn(C5CC5)c4)C3)nc(-c3ccc(F)cc3F)c2C1=O` [compound 218], for which the EC50 (Table D-2) lay in the range of 500 to 3000 nM.

For `CN1C(=O)c2cc([C@H]3CCO[C@@H](c4cnn(C5CC5)c4)C3)nc(-c3ccc(F)cc3F)c2C1=O` [compound 219], the EC50 (Table D-2) lay within 500 to 3000 nM.

As for `CN(C)c1nc2nc([C@H]3CCO[C@H](c4ccc(=O)n(C)c4)C3)nc(-c3ccc(F)cc3F)c2s1` (stereo in doubt) [compound 121, 5-[(2S,4S)-4-[7-(2,4-difluorophenyl)-2-(dimethylamino)thiazolo[4,5-d]pyrimidin-5-yl]tetrahydropyran-2-yl]-1-methyl-pyridin-2-one], the EC50 (Table D) lay in the range of 50 to 500 nM.

For the compound `C[C@@H]1CN(c2cc3c(c(C4CC(C(F)(F)F)C4)n2)CN(C)C3=O)C[C@H](c2cnn(C3CC3)c2)O1` (some centres unmarked) [compound 220], the EC50 (Table D-2) is 50 to 500 nM.

On to `CN1Cc2c(cc(-c3ccc(Cl)cc3F)nc2-c2ccc(Cl)cc2F)C1=O` [compound 210], for which the EC50 (Table D-2) was in the range of 3000 to 100000 nM.

For the setting “Table D-2”, `C[C@H]1c2c(cc(-c3ccc(Cl)cc3F)nc2-c2ccc(Cl)cc2F)C(=O)N1C` [compound 211] displayed an EC50 of 3000 to 100000 nM.

On to `C[C@@H]1CN(c2cc(-c3ccc(F)cc3F)n3ncnc3n2)C[C@H](c2cnn(C3CC3)c2)O1` [compound 131, (2S,6R)-2-(1-cyclopropyl-1H-pyrazol-4-yl)-4-(7-(2,4-difluorophenyl)-[1,2,4]triazolo[1,5-a]pyrimidin-5-yl)-6-methylmorpholine], for which the EC50 (Table D) fell in the range of 500 to 3000 nM.

In the case of `Cc1cc([C@@H]2C[C@H](c3nc(-c4ccc(F)cc4F)c4sc(N(C)C)nc4n3)CCO2)ccn1` [compound 115, 7-(2,4-difluorophenyl)-N,N-dimethyl-5-[(2S,4R)-2-(2-methyl-4-pyridyl)tetrahydropyran-4-yl]thiazolo[4,5-d]pyrimidin-2-amine], the EC50 (Table D) lay within 500 to 3000 nM.

With `CN(C)c1nc2nc([C@H]3CCO[C@@H](c4cnn(C5CC5)c4)C3)nc(C34CC(C(F)(F)F)(C3)C4)c2[nH]1` [compound 129, 2-[(2R,4S)-2-(1-cyclopropylpyrazol-4-yl)tetrahydropyran-4-yl]-N,N-dimethyl-6-[3-(trifluoromethyl)-1-bicyclo[1.1.1]pentanyl]-7H-purin-8-amine], the EC50 (Table D) was in the range of 500 to 3000 nM.

Take `CN1C(=O)c2cc(-c3ccc(Cl)cc3F)nc(N3CCO[C@@H](c4cnn(C)c4)C3)c2C1(C)C` [compound 207]: the concentration for a half-maximal effect (EC50) (Table D-2) was 3000 to 100000 nM.

For `CN1Cc2c(cc([C@@H]3CCO[C@@H](c4cnn(C5CC5)c4)C3)nc2-c2ccc(C(F)(F)F)cc2F)C1=O` [compound 223], the EC50 (Table D-2) fell in the range of 50 to 500 nM.

In turn, `C[C@@H]1CN(c2nc(-c3ccc(C(F)(F)F)cc3)c3sc(N(C)C)nc3n2)C[C@H](c2cnn(C3CC3)c2)O1` [compound 117, 5-[(2S,6R)-2-(1-cyclopropyl-pyrazol-4-yl)-6-methyl-morpholin-4-yl]-N,N-dimeth-yl-7-[4-(trifluoromethyl)-phenyl]thiazolo[4,5-d]pyr-imidin-2-amine] had an EC50 (Table D) of 50 to 500 nM.

In the case of `CN1Cc2c(cc([C@H]3CCO[C@@H](c4cnn(C5CC5)c4)C3)nc2-c2ccc(C(F)(F)F)cc2F)C1=O` [compound 224], the EC50 (Table D-2) fell in the range of 50 to 500 nM.

In the case of `CC(C)N1Cc2c(cc(N3CCO[C@@H](c4cnn(C)c4)C3)nc2-c2ccc(Cl)cc2F)C1=O` [compound 205], the EC50 (Table D-2) is 500 to 3000 nM.

`CN1Cc2c(cc(N3CCO[C@@H](c4cnn(C)c4)C3)nc2-c2ccc(F)cc2F)C1=O` [compound 202] returned an EC50 (Table D-2) of 500 to 3000 nM.

`CN(C)c1nc2nc([C@@H]3CCO[C@@H](c4cnn(C5CC5)c4)C3)nc(-c3cc(F)c(Cl)cc3F)c2s1` (racemic) [compound 106, 7-(4-chloro-2,5-difluoro-phenyl)-N,N-dimethyl-5-[rac-(2R,4R)-2-(1-cyclopropylpyrazol-4-yl)tetrahydropyran-4-yl]thiazolo[4,5-d]pyrimidin-2-amine] displayed an EC50 (Table D) of 3000 to 100000 nM.

`CN1Cc2c(cc(C3CCO[C@@H](c4cnn(C5CC5)c4)C3)nc2C2CC(C(F)(F)F)C2)C1=O` (some centres unmarked) [compound 225] registered an EC50 (Table D-2) of 50 to 500 nM.

In the case of `Cc1cn2c(-c3ccc(C(F)(F)F)cc3F)nc([C@H]3CCO[C@@H](c4cnn(C5CC5)c4)C3)cc2n1` [compound 133, 7-((2R,4S)-2-(1-cyclopropyl-1H-pyrazol-4-yl)tetrahydro-2H-pyran-4-yl)-5-(2-fluoro-4-(trifluoromethyl)phenyl)-2-methylimidazo[1,2-c]pyrimidine], the EC50 (Table D) lay in the range of 50 to 500 nM.

With `C[C@@H]1CN(c2nc(C34CC(C(F)(F)F)(C3)C4)c3c(n2)nc(N(C)C)n3C)C[C@H](c2cnn(C3CC3)c2)O1` [compound 130, 2-[(2S,6R)-2-(1-cyclopropylpyrazol-4-yl)-6-methyl-morpholin-4-yl]-N,N,7-trimethyl-6-[3-(trifluoromethyl)-1-bicyclo[1.1.1]pentanyl]purin-8-amine], the EC50 (Table D) is not above 50 nM.

As to `CN1Cc2c(cc(C3CCO[C@@H](c4cnn(C5CC5)c4)C3)nc2-c2ccc(C(F)(F)F)cc2F)C1=O` (some centres unmarked) [compound 222], the EC50 (Table D-2) was in the range of 50 to 500 nM.

`CC(C)Oc1nc2nc(N3C[C@@H](C)O[C@@H](c4cnn(C5CC5)c4)C3)nc(-c3ccc(C(F)(F)F)cc3F)c2s1` [compound 118, (2S,6R)-2-(1-cyclopropylpyrazol-4-yl)-4-[7-[2-fluoro-4-(trifluoromethyl)-phenyl]-2-isopropoxy-thiazolo[4,5-d]pyrimidin-5-yl]-6-methyl-morpholine] showed an EC50 (Table D) of 500 to 3000 nM.

In turn, `Cc1cc([C@H]2CN(c3cc4c(c(-c5ccc(Cl)cc5F)n3)C(C)N(C)C4=O)CCO2)ccn1` (some centres unmarked) [compound 213] came in with an EC50 (Table D-2) of 3000 to 100000 nM.

`CN1Cc2c(cc([C@H]3CCO[C@@H](c4cnn(C5CC5)c4)C3)nc2C23CC(C(F)(F)F)(C2)C3)C1=O` [compound 226] registered an EC50 (Table D-2) of 50 to 500 nM.

Where the note is “Table D”, `CN(C)c1nc2nc(N3CCO[C@@H](c4cnn(C5CC5)c4)C3)nc(-c3ccc(F)cc3F)c2s1` [compound 100, 5-[(2S)-2-(1-cyclopropylpyrazol-4-yl)morpholin-4-yl]-7-(2,4-difluorophenyl)-N,N-dimethyl-thiazolo[4,5-d]pyrimidin-2-amine] yielded an EC50 not above 50 nM.

On to `CN(C)c1nc2nc([C@@H]3CCO[C@H](c4ccc(=O)n(C)c4)C3)nc(-c3ccc(F)cc3F)c2s1` (stereo in doubt) [compound 120, 5-[(2S,4R)-4-[7-(2,4-difluorophenyl)-2-(dimethylamino)thiazolo[4,5-d]pyrimidin-5-yl]tetrahydropyran-2-yl]-1-methyl-pyridin-2-one], for which, under “Table D”, the EC50 is not above 50 nM.

In the case of `C[C@H]1CCCN1c1nc2nc([C@H]3CCO[C@@H](c4cnn(C5CC5)c4)C3)nc(-c3ccc(F)cc3F)c2n1C` [compound 125], where the note is “Table D”, the EC50 is 50 to 500 nM.

With `C[C@@H]1CN(c2cc(-c3ccc(F)cc3F)c3sccc3n2)C[C@H](c2cnn(C3CC3)c2)O1` [compound 111, (2S,6R)-2-(1-cyclopropylpyrazol-4-yl)-4-[7-(2,4-difluorophenyl)thieno[3,2-b]pyridin-5-yl]-6-methyl-morpholine], where the note is “Table D”, the EC50 was in the range of 500 to 3000 nM.

Consider `CC(C)c1nc2nc(N3C[C@@H](C)O[C@@H](c4cnn(C5CC5)c4)C3)nc(-c3ccc(F)cc3F)c2s1` [compound 113, (2S,6R)-2-(1-cyclopropyl-1H-pyrazol-4-yl)-4-(7-(2,4-difluorophenyl)-2-isopropylthiazolo[4,5-d]pyrimidin-5-yl)-6-methylmorpholine], for which the EC50 (Table D) was not above 50 nM.

`CN(C)c1nc2nc([C@H]3CCO[C@@H](c4cnn(C5CC5)c4)C3)nc(-c3cc(F)c(Cl)cc3F)c2s1` [compound 105, 7-(4-chloro-2,5-difluoro-phenyl)-N,N-dimethyl-5-[(2R,4S)-2-(1-cyclopropylpyrazol-4-yl)tetrahydropyran-4-yl]thiazolo[4,5-d]pyrimidin-2-amine] displayed an EC50 (Table D) not above 50 nM.

As to `C[C@@H]1CN(c2nc(-c3ccc(C(F)(F)F)cc3F)c3[nH]c(N(C)C)nc3n2)C[C@H](c2cnn(C3CC3)c2)O1` [compound 126, 2-((2S,6R)-2-(1-cyclopropyl-1H-pyrazol-4-yl)-6-methylmorpholino)-6-(2-fluoro-4-(trifluoromethyl)phenyl)-N,N-dimethyl-9H-purin-8-amine], where the note is “Table D”, the EC50 was in the range of 50 to 500 nM.

`C[C@@H]1CN(c2nc(-c3ccc(F)cc3F)c3sc(N4CCC[C@H]4C)nc3n2)C[C@H](c2cnn(C3CC3)c2)O1` [compound 109, (2S,6R)-2-(1-cyclopropyl-1H-pyrazol-4-yl)-4-(7-(2,4-difluorophenyl)-2-((R)-2-methylpyrrolidin-1-yl)thiazolo[4,5-d]pyrimidin-5-yl)-6-methylmorpholine] had a concentration for a half-maximal effect (EC50) (Table D) not above 50 nM.
